Source: patent US12383527B2, “Methods for treating triple negative breast cancer using salvianolic acid B” (HOWARD UNIVERSITY, priority 2018, dated 2025)

Columns and labels:
[1] = tested on: survivin; assay: Immunohistochemical staining of survivin in MDA tumor xenografts; assay type: in vivo, athymic nude mice; details: Sal-B 80 mg/kg three times per week; versus untreated group
Procedure: (§1) Human tumor xenografts in athymic nude mice. […] The animal protocol was approved by the Howard University Animal Care and Use Committee. Four-week-old female athymic nude mice (Nu/Nu) were obtained from Harlan Sprague Dawley (Indianapolis, IN). All mice were provided the Harlan Teklad #2018 Global 18% protein rodent diet and water ad libitum. Mice were housed in temperature-controlled rooms (74±2° F.) with a 12-hour alternating light-dark cycle. MDA cells (3×10^6/50 μL/spot) were subcutaneously injected into the both sides of lower back of mice using a 27-gauge needle. […]
(§2) Immunohistochemical staining was performed as described previously (Hao Y, et al., “Enforced expression of miR-101 inhibits prostate cancer cell growth by modulating the COX-2 pathway in vivo,” Cancer Prev Res (Phila), 2011; 4: 1073-1083). […] For the quantification, ten high-magnification (40×) fields were randomly selected from each slide of tumors and the positive cells were counted. The protein expression was expressed as the average number of positive cells per high magnification field.

[2] = tested on: survivin; assay: Western blot of survivin expression in MDA and MCF-7 cells; assay type: cell-based, human; details: Sal-B 50 μM and 100 μM, 24 hours
Procedure: (§3) The immunohistochemical results were consistent with those from Western blotting (FIG. 7, panel A). Western blot analysis was used to determine the expression of apoptosis-related proteins Bcl-XL, survivin, caspase-3 and caspase-8 (FIG. 7, panel A). β-actin was used as an internal control for Western blotting. The MCD-7 and MDA cells were treated with Sal-B (50 μM and 100 μM) and doxorubicin (0.1 μM and 1 μM), respectively, for 24 hours. Proteins were extracted from the cells with RIPA lysis buffer (Santa Cruz Biotechnology, Santa Cruz, CA) and the protein concentrations were quantified with Bio-Rad protein quantification kit. Whole-cell proteins were separated on 8% SDS-polyacrylamide gel, transferred to the polyvinylidene difluoride membrane (Bio-Rad), and then probed with the indicated primary antibodies overnight at 4° C. Washed blots were then incubated with horseradish peroxidase-conjugated anti-rabbit, anti-mouse, or anti-goat antibody (Santa Cruz Biotechnology), respectively, for one hour at room temperature. Blots were developed and visualized with ECL detection system (Bio-Rad).

[3] = tested on: proliferating cell nuclear antigen (PCNA); assay: Immunohistochemical staining of PCNA in MDA tumor xenografts; assay type: in vivo, athymic nude mice; details: Sal-B 80 mg/kg three times per week; versus untreated; P<0.05
Procedure: as §1, §2

[4] = tested on: MDA-MB-231 cells; assay: Cell cycle profile analysis by flow cytometry; assay type: cell-based, human; details: Sal-B 50 μM and 100 μM, 24 hours
Procedure: (§4) Cell cycle profile analysis using flow cytometry and Western blot analysis. To understand the effects of Sal-B on the cell cycle of cancer cells, the cell cycle profile was analyzed using flow cytometry. The cells from both cell lines were treated with Sal-B (50 and 100 µM) or doxorubicin (0.1 and 1 μM) for 24 hours and then fixed in chilled 80% ethanol. The fixed cells were incubated in a solution containing 100 μg/mL RNase at 37° C. water bath for 45 minutes. Propidium iodide (final concentration of 50 μg/ml) was then added to the cells and incubated in a 37° C. water bath for another 15 minutes. The analysis was carried out with a FACStar flow cytometer (Becton Dickinson, San Jose, CA). Ten thousand cells per sample were analyzed, cach sample was done in triplicate and the experiment was repeated three times.

[5] = tested on: MCF-7 cells; assay: Cell cycle profile analysis by flow cytometry; assay type: cell-based, human; details: Sal-B 50 μM and 100 μM, 24 hours
Procedure: as §4

[6] = tested on: glucosylceramide synthase (GCS); assay: Western blot of GCS expression in MDA and MCF-7 cells; assay type: cell-based, human; details: for GCS protein level (normalized to β-actin): Sal-B 50 μM; for GCS expression, further effect versus 50 μM: Sal-B 100 μM
Procedure: as §3
To understand the mechanism underlying increased ceramide accumulation, the expression levels of GCS and GM3 synthase were measured by Western blot analysis in MDA and MCF-7 cells treated by various concentrations of Sal-B (FIG. 8). The amount of protein expression was normalized by the expression of the internal control β-actin. […] Sal-B was found effective to down-regulate GCS and GM3 synthase expression in cancer cells.

[7] = tested on: ceramides; assay: Ceramide levels in MDA cells by flow cytometry; assay type: cell-based, human; details: Sal-B 50 μM, 24 hours
Procedure: Ceramide levels were further analyzed with flow cytometry, according to the method described above, through comparison of Sal-B treated and untreated MDA cells. MDA cells were treated with 50 μM and 100 μM of Sal-B, respectively, for 24 hours and ceramide levels were then analyzed by flow cytometry.
Similarly, immunohistochemistry was carried out, as generally described above, to evaluate the expression of ceramides in MDA tumor xenografts (FIG. 9, panel C). The fixed cells were sequentially incubated with anti-ceramide primary antibody (1:100) for 2 hours and PE-labeled secondary antibody (1:200) for 30 minutes, and the ceramide positive cells were counted (FIG. 9, panel B).

Which “survivin level in tumors” value [1] does the source give for `O=C(/C=C/c1ccc(O)c2c1[C@H](C(=O)O[C@H](Cc1ccc(O)c(O)c1)C(=O)O)[C@@H](c1ccc(O)c(O)c1)O2)O[C@H](Cc1ccc(O)c(O)c1)C(=O)O` [Sal-B, Salvianolic acid B] here?
The value was “decreasing”.

What about the survivin protein expression ([2]; MCF-7 cells) of the same compound?
Its survivin protein expression is “downregulated”.

And the survivin protein expression ([2]; MDA cells)?
Its survivin protein expression is “downregulated”.

What about the “PCNA levels in tumor xenografts” value [3] of the same compound?
The value was “higher in untreated MDA tumor xenografts”.

And the “changes in the cell cycle phases” value [4]?
Its value is “no significant changes”.

And the “changes in the cell cycle phases” value [5]?
The value was “no significant changes”.

What about the “GCS protein level (normalized to β-actin)” value ([6]; MCF-7 cells) of the same compound?
The value was “sufficient to inhibit GCS protein level”.

What about the “GCS expression, further effect versus 50 μM” value ([6]; MCF-7 cells) of the same compound?
Its value is “No further inhibitory effect”.

What about the “GCS protein level (normalized to β-actin)” value ([6]; MDA cells) of the same compound?
The value was “sufficient to inhibit GCS protein level”.

And the “GCS expression, further effect versus 50 μM” value ([6]; MDA cells)?
Its value is “No further inhibitory effect”.

What about the “ceramide level by flow cytometry” value [7] of the same compound?
Its value is “sufficient to enhance the ceramide level”.
